# Test results from publication PMC11289455 (Scientific Reports, 2024).
# Where two headings read alike, the source gives them in different places.
# Assays:
# [1] = target: T1, GR (glucocorticoid receptor) (Homo sapiens, UniProt P04150); assay: SafetyScreen44: GR; type: binding
# T1 construct: purchased Eurofins Cerep SafetyScreen44
# T1 sequence (P04150 1-777): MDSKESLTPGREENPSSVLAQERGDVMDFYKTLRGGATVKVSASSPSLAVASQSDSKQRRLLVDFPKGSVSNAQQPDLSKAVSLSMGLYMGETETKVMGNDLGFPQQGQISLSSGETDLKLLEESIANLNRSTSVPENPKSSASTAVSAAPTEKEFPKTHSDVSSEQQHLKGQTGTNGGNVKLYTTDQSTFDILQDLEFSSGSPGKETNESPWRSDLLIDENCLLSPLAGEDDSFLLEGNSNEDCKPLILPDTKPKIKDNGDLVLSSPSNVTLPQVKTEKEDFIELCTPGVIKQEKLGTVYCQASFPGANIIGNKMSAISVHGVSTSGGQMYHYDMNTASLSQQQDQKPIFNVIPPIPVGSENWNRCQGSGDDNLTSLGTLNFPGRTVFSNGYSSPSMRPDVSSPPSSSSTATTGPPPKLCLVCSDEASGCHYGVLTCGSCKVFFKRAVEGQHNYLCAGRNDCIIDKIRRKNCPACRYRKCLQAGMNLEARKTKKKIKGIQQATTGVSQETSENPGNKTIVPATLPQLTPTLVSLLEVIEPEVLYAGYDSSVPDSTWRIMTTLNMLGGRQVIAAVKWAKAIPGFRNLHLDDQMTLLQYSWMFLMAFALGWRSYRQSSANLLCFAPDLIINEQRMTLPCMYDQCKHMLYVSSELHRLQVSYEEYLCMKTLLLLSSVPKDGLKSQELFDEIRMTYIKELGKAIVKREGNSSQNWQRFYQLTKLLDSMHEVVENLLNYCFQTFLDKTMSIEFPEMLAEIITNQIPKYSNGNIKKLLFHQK
# [2] = First-in-human study, pharmacokinetics; type: in vivo; conditions: healthy participants
# Procedure: The purpose of the first-in-human, single-center, randomized, double-blind, placebo-controlled study was to determine the safety, tolerability, pharmacokinetics, and pharmacodynamics of JNJ-77242113 in healthy participants. […] AEs were coded using the Medical Dictionary for Regulatory Activities (Version 23.1).
# Whole blood samples were collected in TruCulture Tubes containing 10 ng/mL IL-2 and 20 ng/mL IL-18 with or without additional IL-23 (0.5 ng/mL, R&D Systems/Biotechne). […] IFNγ was quantified via the V-Plex-plus human IFNγ kit (MSD).
# Mean concentration–time profiles for each treatment/dose group were presented graphically. Descriptive statistics were used to describe demographic and safety data.
# [3] = target: T2, V1a (vasopressin receptor 1A) (Homo sapiens, UniProt P37288); assay: SafetyScreen44: V1a; type: binding
# T2 construct: purchased Eurofins Cerep SafetyScreen44
# T2 sequence (P37288 whole entry): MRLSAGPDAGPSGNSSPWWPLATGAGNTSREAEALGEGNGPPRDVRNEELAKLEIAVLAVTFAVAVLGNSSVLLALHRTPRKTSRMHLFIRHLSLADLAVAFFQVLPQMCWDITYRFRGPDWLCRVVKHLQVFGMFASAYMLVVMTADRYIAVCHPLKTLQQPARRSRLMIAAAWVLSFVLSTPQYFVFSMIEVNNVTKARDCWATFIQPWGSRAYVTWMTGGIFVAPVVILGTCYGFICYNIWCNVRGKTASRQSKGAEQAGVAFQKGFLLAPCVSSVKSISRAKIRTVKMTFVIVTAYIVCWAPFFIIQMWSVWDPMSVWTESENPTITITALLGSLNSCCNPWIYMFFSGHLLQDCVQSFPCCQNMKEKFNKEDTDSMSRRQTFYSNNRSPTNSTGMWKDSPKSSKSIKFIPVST
# acetylcholinesterase = target: T3, acetylcholinesterase (Homo sapiens, UniProt P22303); assay: SafetyScreen44: acetylcholinesterase; type: biochemical
# T3 construct: purchased Eurofins Cerep SafetyScreen44
# T3 sequence (P22303 32-614): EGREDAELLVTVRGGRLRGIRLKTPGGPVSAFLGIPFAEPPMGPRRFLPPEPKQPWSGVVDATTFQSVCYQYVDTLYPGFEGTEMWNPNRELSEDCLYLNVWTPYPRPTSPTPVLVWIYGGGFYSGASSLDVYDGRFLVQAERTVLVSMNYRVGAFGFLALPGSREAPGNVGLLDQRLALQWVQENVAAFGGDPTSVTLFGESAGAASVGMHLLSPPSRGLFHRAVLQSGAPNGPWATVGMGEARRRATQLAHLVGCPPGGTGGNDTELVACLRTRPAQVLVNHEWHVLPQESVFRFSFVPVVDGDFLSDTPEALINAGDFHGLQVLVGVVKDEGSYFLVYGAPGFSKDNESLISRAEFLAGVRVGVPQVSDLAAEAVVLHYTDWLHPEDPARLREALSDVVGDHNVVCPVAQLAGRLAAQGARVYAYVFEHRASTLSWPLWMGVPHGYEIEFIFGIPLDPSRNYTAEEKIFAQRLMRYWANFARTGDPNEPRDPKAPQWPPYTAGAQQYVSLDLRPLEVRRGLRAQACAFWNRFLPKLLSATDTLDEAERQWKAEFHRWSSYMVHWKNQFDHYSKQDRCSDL
# [4] = target: T4, D2S (short dopamine D2 receptor) (Homo sapiens, UniProt P14416); assay: SafetyScreen44: D2S; type: binding
# T4 construct: purchased Eurofins Cerep SafetyScreen44
# T4 sequence (P14416 1-414 isoform P14416-2): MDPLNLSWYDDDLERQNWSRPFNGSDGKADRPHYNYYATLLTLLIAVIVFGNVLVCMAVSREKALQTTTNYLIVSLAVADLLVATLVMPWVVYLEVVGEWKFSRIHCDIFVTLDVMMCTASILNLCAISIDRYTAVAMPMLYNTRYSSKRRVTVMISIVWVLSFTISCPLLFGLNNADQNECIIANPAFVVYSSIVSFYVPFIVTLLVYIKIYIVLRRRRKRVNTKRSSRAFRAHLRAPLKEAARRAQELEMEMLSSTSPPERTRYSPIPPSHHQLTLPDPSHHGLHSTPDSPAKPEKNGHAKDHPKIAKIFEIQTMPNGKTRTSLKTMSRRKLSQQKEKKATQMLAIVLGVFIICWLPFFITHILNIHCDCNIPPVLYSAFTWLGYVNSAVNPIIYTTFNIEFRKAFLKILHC
# [5] = target: T5, M1 (muscarinic acetylcholine receptor M1) (Homo sapiens, UniProt P11229); assay: SafetyScreen44: M1; type: binding
# T5 construct: purchased Eurofins Cerep SafetyScreen44
# T5 sequence (P11229 1-460): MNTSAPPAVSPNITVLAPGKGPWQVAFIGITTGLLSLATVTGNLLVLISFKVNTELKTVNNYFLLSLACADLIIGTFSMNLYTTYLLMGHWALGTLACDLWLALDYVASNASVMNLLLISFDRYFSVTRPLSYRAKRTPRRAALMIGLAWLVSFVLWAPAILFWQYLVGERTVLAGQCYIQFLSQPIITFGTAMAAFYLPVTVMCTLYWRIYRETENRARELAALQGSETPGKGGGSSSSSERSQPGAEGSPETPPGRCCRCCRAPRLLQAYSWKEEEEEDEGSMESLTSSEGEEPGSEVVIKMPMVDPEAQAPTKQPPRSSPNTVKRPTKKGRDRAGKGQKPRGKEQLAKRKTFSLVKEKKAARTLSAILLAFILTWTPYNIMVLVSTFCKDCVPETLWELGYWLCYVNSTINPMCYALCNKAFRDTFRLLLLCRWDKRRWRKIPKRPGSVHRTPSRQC
# [6] = target: T6, α2A (alpha-2A adrenergic receptor) (Homo sapiens, UniProt P08913); assay: SafetyScreen44: α2A; type: binding
# T6 construct: purchased Eurofins Cerep SafetyScreen44
# T6 sequence (P08913 1-465): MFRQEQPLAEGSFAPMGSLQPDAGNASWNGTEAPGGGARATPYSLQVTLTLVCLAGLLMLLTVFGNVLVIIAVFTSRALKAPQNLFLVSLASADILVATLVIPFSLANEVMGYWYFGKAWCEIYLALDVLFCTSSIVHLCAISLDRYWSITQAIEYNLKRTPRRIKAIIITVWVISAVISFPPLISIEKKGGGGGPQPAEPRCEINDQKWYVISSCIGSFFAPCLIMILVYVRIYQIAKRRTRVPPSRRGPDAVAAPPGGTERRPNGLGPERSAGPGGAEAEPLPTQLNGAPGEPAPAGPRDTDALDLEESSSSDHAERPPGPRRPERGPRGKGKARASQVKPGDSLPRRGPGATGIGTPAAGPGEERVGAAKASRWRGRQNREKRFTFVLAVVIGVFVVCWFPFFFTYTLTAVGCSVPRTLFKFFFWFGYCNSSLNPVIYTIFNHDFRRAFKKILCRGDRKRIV
# [7] = Part 2 (MAD), once daily oral dosing for 10 days
smiles,measurement,setting,value
"CC(=O)NCCCC[C@@H]1NC(=O)[C@H](Cc2c[nH]c3c(C)cccc23)NC(=O)[C@H]([C@@H](C)O)NC(=O)[C@H](CC(N)=O)NC(=O)[C@@H](NC(C)=O)C(C)(C)SSC(C)(C)[C@@H](C(=O)N[C@@H](Cc2ccc(OCCN)cc2)C(=O)N[C@@H](Cc2ccc3ccccc3c2)C(=O)NC2(C(=O)N[C@@H](CCC(=O)O)C(=O)N[C@@H](CC(N)=O)C(=O)N[C@@H](Cc3cccnc3)C(=O)N(C)CC(N)=O)CCOCC2)NC1=O [JNJ-77242113, S^3,1,S^3,6-cyclo[N-acetyl-3-sulfanyl-L-valyl-L-asparaginyl-L-threonyl-7-methyl-L-tryptophyl-N^6-acetyl-L-lysyl-3-sulfanyl-L-valyl-O-(2-aminoethyl)-L-tyrosyl-3-(naphthalen-2-yl)-L-alanyl-4-aminooxan-4-carbonyl-L-α-glutamyl-L-asparaginyl-3-(pyridin-3-yl)-L-alanyl-N^2-methylglycinamide]]",inhibition at 10 µM,"[1]; 1st run, read-out: Percent inhibition of control ligand binding, GR, 1st run",3.5%
same,inhibition at 10 µM,"[1]; 2nd run, read-out: Percent inhibition of control ligand binding, GR, 2nd run",-0.8%
same,inhibition at 10 µM,"[1]; mean of 2 runs, read-out: Percent inhibition of control ligand binding, GR, Mean",1.3%
same,Plasma exposure versus dose (in words),[2]; 100-fold dose range of 10 to 1000 mg oral,Dose-proportional plasma exposure
same,"Accumulation for AUC, Day 1 versus Day 10",[2]; [7],0.9 to 1.5
same,"Accumulation for Cmax, Day 1 versus Day 10",[2]; [7],0.7 to 1.6
same,Estimated terminal elimination half-life,"[2]; oral 10 to 1000 mg, plasma LC–MS/MS",9 to 16 h
same,inhibition at 10 µM,"[3]; 1st run, read-out: Percent inhibition of control ligand binding, V1a, 1st run",4.8%
same,inhibition at 10 µM,"[3]; 2nd run, read-out: Percent inhibition of control ligand binding, V1a, 2nd run",6.4%
same,inhibition at 10 µM,"[3]; mean of 2 runs, read-out: Percent inhibition of control ligand binding, V1a, Mean",5.6%
same,inhibition at 10 µM,"acetylcholinesterase; 1st run, read-out: Percent inhibition of control ligand binding, acetylcholinesterase, 1st run",9.8%
same,inhibition at 10 µM,"acetylcholinesterase; 2nd run, read-out: Percent inhibition of control ligand binding, acetylcholinesterase, 2nd run",2.2%
same,inhibition at 10 µM,"acetylcholinesterase; mean of 2 runs, read-out: Percent inhibition of control ligand binding, acetylcholinesterase, Mean",6%
same,inhibition at 10 µM,"[4]; 1st run, read-out: Percent inhibition of control ligand binding, D2S, 1st run",-6.6%
same,inhibition at 10 µM,"[4]; 2nd run, read-out: Percent inhibition of control ligand binding, D2S, 2nd run",-6.6%
same,inhibition at 10 µM,"[4]; mean of 2 runs, read-out: Percent inhibition of control ligand binding, D2S, Mean",-6.6%
same,inhibition at 10 µM,"[5]; 1st run, read-out: Percent inhibition of control ligand binding, M1, 1st run",-4.1%
same,inhibition at 10 µM,"[5]; 2nd run, read-out: Percent inhibition of control ligand binding, M1, 2nd run",3.3%
same,inhibition at 10 µM,"[5]; mean of 2 runs, read-out: Percent inhibition of control ligand binding, M1, Mean",-0.4%
same,inhibition at 10 µM,"[6]; 1st run, read-out: Percent inhibition of control ligand binding, α2A, 1st run",0.4%
same,inhibition at 10 µM,"[6]; 2nd run, read-out: Percent inhibition of control ligand binding, α2A, 2nd run",-2.6%
same,inhibition at 10 µM,"[6]; mean of 2 runs, read-out: Percent inhibition of control ligand binding, α2A, Mean",-1.1%
